In US9403850B2, “Beta-lactamase inhibitors” (priority 2013, dated 2016):
Like-named read-outs stand apart in the source and are kept apart here.

Legend:
VIM-2 = target: T1, VIM-2 (Escherichia coli, UniProt Q5U7L7); assay: β-Lactamase enzyme inhibition assay, VIM-2 (nitrocefin substrate); assay type: biochemical
T1 construct: made in house; host or cells: E. coli BL21(DE3)
Method: For Vim-2 metallo β-lactamase, the procedure was identical with the following exceptions, first the protein was not pH adjusted to pH 5 with 50 mM sodium acetate, second, the chromatography step was changed to a 5 ml Q sepharose anion exchange column pre-equilibrated with 50 mM Hepes pH 7.5, and elution of the protein was achieved by a linear gradient of NaCl (0-600 mM). Finally, the VIM-2 purification required a second run (3rd step) on the Q sepharose anion exchange column to achieve acceptable purity (>90%).
An equal volume of diluted enzyme stock was added, and the plates were incubated at 37° C. for 15 min. Nitrocefin was used as substrate for p99 AmpC, VIM-2 and OXA-1 and dispensed into each well at a final concentration of 100 μM. Absorbance at 486 nm was immediately monitored for 10 min using a Biotek Powerwave XS2 microplate spectrophotometer using the GEN5 softweare package (Biotek Instruments, Winooski Vt.). In an analogous fashion, imipenem was used as substrate for Kpc-2 and Cefotaxime was used for SHV-5, while changes in absorbance upon hydrolysis of the β-lactam ring were monitored at 300 nm and 260 nm respectively in UV-transparent 96-well microtiter assay plates. Maximum rates of hydrolysis were compared to those in control wells (without inhibitors), and percentages of enzyme inhibition were calculated for each concentration of inhibitor. The concentration of inhibitor needed to reduce the initial rate of hydrolysis of substrate by 50% (IC50) was calculated as the residual activity of β-lactamase at 486 nm using GraFit version 7 kinetics software package (Erithacus Software, Surrey, UK).
Using the methodology described above, examples of the current invention were evaluated for their ability to inhibit β-lactamase enzymes from all four Ambler classifications (A through D). […] NT=Not tested.

[1] = test system: E. coli ESBL4 expressing CTX-M-15; assay: Broth microdilution MIC assay, partner ceftazidime;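 further: ceftazidime held fixed at 4 µg/mL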; assay type: cell-based; settings: Escherichia coli, read-out: MIC of Exemplary Compounds in presence of fixed β-lactams, Fixed CAZ, E. coli ESBL4 CTX-M-15
[2] = test system: E. cloacae 144200 expressing Class C P99 AmpC; assay: Broth microdilution MIC assay, partner ceftazidime;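 further: ceftazidime held fixed at 4 µg/mL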; assay type: cell-based; settings: Enterobacter cloacae, read-out: MIC of Exemplary Compounds in presence of fixed β-lactams, Fixed CAZ, E. cl. 144200 p99 AmpC
[3] = test system: K. pneumoniae 156319 expressing KPC-3; assay: Broth microdilution MIC assay, partner meropenem; assay type: cell-based; settings: Klebsiella pneumoniae, read-out: MIC of Exemplary Compounds in presence of fixed β-lactams, Fixed Mero, K.P. 156319 KPC-3
[4] = test system: P. aeruginosa Ps296 expressing VIM-2; assay: Broth microdilution MIC assay, partner meropenem; assay type: cell-based; settings: Pseudomonas aeruginosa, read-out: MIC of Exemplary Compounds in presence of fixed β-lactams, Fixed Mero, P. aerug. Ps296 VIM-2
[5] = test system: K. pneumoniae A-1797 expressing KPC-2 and VIM-4; assay: Broth microdilution MIC assay, partner meropenem; assay type: cell-based; settings: Klebsiella pneumoniae, read-out: MIC of Exemplary Compounds in presence of fixed β-lactams, Fixed Mero, K.P. A-1797 KPC-2 VIM-4
[6] = test system: S. aureus MSSA-7 producing penicillinase PC-1; assay: Broth microdilution MIC assay, partner piperacillin; assay type: cell-based; settings: Staphylococcus aureus, read-out: MIC of Exemplary Compounds in presence of fixed β-lactams, Fixed Pip, S. aureus MSSA-7 PC-1
[7] = nitrocefin substrate 100 μM, 15 min preincubation at 37° C., read-out: IC50, Class B VIM-2

SMILES	IC50 (VIM-2; [7])	MIC [1]	MIC [2]	MIC [3]	MIC [4]	MIC [5]	MIC ([6]; fixed piperacillin 4 μg/mL)	IC50 (VIM-2)	MIC [6]
O=C(O)c1cccc2c1OB(O)[C@@H](NC(=O)C1(c3ccccc3)CC1)C2 [Example 1, (R)-2-hydroxy-3-(1-phenylcyclopropanecarboxamido)-3,4-dihydro-2H-benzo[e][1,2]oxaborinine-8-carboxylic acid]	0.1 to 1 µM	< 4 µg/mL	< 4 µg/mL	8 to 32 µg/mL	8 to 32 µg/mL	–	–	–	–
O=C(O)c1cccc2c1OB(O)[C@@H](NC(=O)C(F)(F)c1ccccc1)C2 [Example 2, (R)-3-(2,2-difluoro-2-phenylacetamido)-2-hydroxy-3,4-dihydro-2H-benzo[e][1,2]oxaborinine-8-carboxylic acid]	1 to 10 µM	< 4 µg/mL	< 4 µg/mL	8 to 32 µg/mL	8 to 32 µg/mL	> 32 µg/mL	< 4 µg/mL	–	–
O=C(O)c1cccc2c1OB(O)[C@@H](NC(=O)C1(c3ccccc3)CCNCC1)C2 [Example 3, (R)-2-hydroxy-3-(4-phenylpiperidine-4-carboxamido)-3,4-dihydro-2H-benzo[e][1,2]oxaborinine-8-carboxylic acid]	–	< 4 µg/mL	< 4 µg/mL	< 4 µg/mL	8 to 32 µg/mL	> 32 µg/mL	–	1 to 10 µM	> 32 µg/mL
O=C(N[C@H]1Cc2cccc(C(=O)O)c2OB1O)c1csc2c1CCNC2 [Example 4, (R)-2-hydroxy-3-(4,5,6,7-tetrahydrothieno[2,3-c]pyridine-3-carboxamido)-3,4-dihydro-2H-benzo[e][1,2]oxaborinine-8-carboxylic acid]	0.1 to 1 µM	< 4 µg/mL	< 4 µg/mL	< 4 µg/mL	> 32 µg/mL	< 4 µg/mL	< 4 µg/mL	–	–
O=C(N[C@H]1Cc2cccc(C(=O)O)c2OB1O)c1ccc2c(c1)CCNC2 [Example 5, (R)-3-(2-borono-2-(1,2,3,4-tetrahydroisoquinoline-6-carboxamido)ethyl)-2-hydroxybenzoic acid]	0.1 to 1 µM	< 4 µg/mL	< 4 µg/mL	< 4 µg/mL	> 32 µg/mL	< 4 µg/mL	< 4 µg/mL	–	–
CN1CCc2c(C(=O)N[C@H]3Cc4cccc(C(=O)O)c4OB3O)csc2C1 [Example 6, (R)-2-hydroxy-3-(6-methyl-4,5,6,7-tetrahydrothieno[2,3-c]pyridine-3-carboxamido)-3,4-dihydro-2H-benzo[e][1,2]oxaborinine-8-carboxylic acid]	1 to 10 µM	< 4 µg/mL	< 4 µg/mL	< 4 µg/mL	> 32 µg/mL	8 to 32 µg/mL	< 4 µg/mL	–	–
CN1CCc2cc(C(=O)N[C@H]3Cc4cccc(C(=O)O)c4OB3O)ccc2C1 [Example 7, (R)-2-hydroxy-3-(2-methyl-1,2,3,4-tetrahydroisoquinoline-6-carboxamido)-3,4-dihydro-2H-benzo[e][1,2]oxaborinine-8-carboxylic acid]	0.1 to 1 µM	< 4 µg/mL	< 4 µg/mL	8 to 32 µg/mL	> 32 µg/mL	< 4 µg/mL	< 4 µg/mL	–	–
O=C(O)c1cccc2c1OB(O)[C@@H](NC(=O)c1c[nH]c3ncccc13)C2 [Example 8, (R)-2-hydroxy-3-(1H-pyrrolo[2,3-b]pyridine-3-carboxamido)-3,4-dihydro-2H-benzo[e][1,2]oxaborinine-8-carboxylic acid]	1 to 10 µM	< 4 µg/mL	< 4 µg/mL	> 32 µg/mL	< 4 µg/mL	> 32 µg/mL	< 4 µg/mL	–	–
O=C(N[C@H]1Cc2cccc(C(=O)O)c2OB1O)c1ccc2c(c1)CNC2 [Example 9, (R)-2-hydroxy-3-(isoindoline-5-carboxamido)-3,4-dihydro-2H-benzo[e][1,2]oxaborinine-8-carboxylic acid]	< 0.1 µM	< 4 µg/mL	< 4 µg/mL	< 4 µg/mL	< 4 µg/mL	< 4 µg/mL	< 4 µg/mL	–	–
CN1Cc2ccc(C(=O)N[C@H]3Cc4cccc(C(=O)O)c4OB3O)cc2C1 [Example 10, (R)-2-hydroxy-3-(2-methylisoindoline-5-carboxamido)-3,4-dihydro-2H-benzo[e][1,2]oxaborinine-8-carboxylic acid]	< 0.1 µM	< 4 µg/mL	< 4 µg/mL	< 4 µg/mL	8 to 32 µg/mL	< 4 µg/mL	< 4 µg/mL	–	–
NCCN1Cc2ccc(C(=O)N[C@H]3Cc4cccc(C(=O)O)c4OB3O)cc2C1 [Example 11, (R)-3-(2-(2-aminoethyl)isoindoline-5-carboxamido)-2-hydroxy-3,4-dihydro-2H-benzo[e][1,2]oxaborinine-8-carboxylic acid]	0.1 to 1 µM	< 4 µg/mL	< 4 µg/mL	< 4 µg/mL	> 32 µg/mL	< 4 µg/mL	< 4 µg/mL	–	–
O=C(N[C@H]1Cc2cccc(C(=O)O)c2OB1O)c1ccc2c(c1)CN(Cc1cccnc1)C2 [Example 12, (R)-2-hydroxy-3-(2-(pyridin-3-ylmethyl)isoindoline-5-carboxamido)-3,4-dihydro-2H-benzo[e][1,2]oxaborinine-8-carboxylic acid]	0.1 to 1 µM	8 to 32 µg/mL	< 4 µg/mL	8 to 32 µg/mL	> 32 µg/mL	8 to 32 µg/mL	< 4 µg/mL	–	–
O=C(Cc1cnc2c(c1)CCCN2)N[C@H]1Cc2cccc(C(=O)O)c2OB1O [Example 13, (R)-2-hydroxy-3-(2-(5,6,7,8-tetrahydro-1,8-naphthyridin-3-yl)acetamido)-3,4-dihydro-2H-benzo[e][1,2]oxaborinine-8-carboxylic acid]	1 to 10 µM	< 4 µg/mL	< 4 µg/mL	< 4 µg/mL	8 to 32 µg/mL	8 to 32 µg/mL	< 4 µg/mL	–	–
NCc1ccc(C(=O)N[C@H]2Cc3cccc(C(=O)O)c3OB2O)cc1CN [Example 14, (R)-3-(3,4-bis(aminomethyl)benzamido)-2-hydroxy-3,4-dihydro-2H-benzo[e][1,2]oxaborinine-8-carboxylic acid]	< 0.1 µM	< 4 µg/mL	< 4 µg/mL	< 4 µg/mL	< 4 µg/mL	< 4 µg/mL	< 4 µg/mL	–	–
NC1=Nc2cc(C(=O)N[C@H]3Cc4cccc(C(=O)O)c4OB3O)ccc2CN1 [Example 15, (R)-3-(2-amino-3,4-dihydroquinazoline-7-carboxamido)-2-hydroxy-3,4-dihydro-2H-benzo[e][1,2]oxaborinine-8-carboxylic acid]	1 to 10 µM	< 4 µg/mL	< 4 µg/mL	8 to 32 µg/mL	< 4 µg/mL	8 to 32 µg/mL	< 4 µg/mL	–	–
N=C(N)N1Cc2ccc(C(=O)N[C@H]3Cc4cccc(C(=O)O)c4OB3O)cc2C1 [Example 16, (R)-3-(2-carbamimidoylisoindoline-5-carboxamido)-2-hydroxy-3,4-dihydro-2H-benzo[e][1,2]oxaborinine-8-carboxylic acid]	< 0.1 µM	< 4 µg/mL	< 4 µg/mL	< 4 µg/mL	< 4 µg/mL	< 4 µg/mL	< 4 µg/mL	–	–
NC1=NCc2ccc(C(=O)N[C@H]3Cc4cccc(C(=O)O)c4OB3O)cc2CN1 [Example 17, (R)-3-(3-amino-4,5-dihydro-1H-benzo[e][1,3]diazepine-7-carboxamido)-2-hydroxy-3,4-dihydro-2H-benzo[e][1,2]oxaborinine-8-carboxylic acid]	< 0.1 µM	< 4 µg/mL	< 4 µg/mL	< 4 µg/mL	8 to 32 µg/mL	< 4 µg/mL	< 4 µg/mL	–	–
